Measurements reported in US7977322B2 (Vertex Pharmaceuticals Incorporated, priority 2004, dated 2011).

Target: T1, ΔF508-CFTR (Homo sapiens, UniProt P13569, DEL508-508)
T1 construct: expressed in transfected cells
Experiment: Membrane potential optical (FRET/VIPR) assay, identification of correction compounds
Assay type: cell-based
Conditions: Table 3, assay not given; for Emax: read-out: % Activity / % Efficacy (relative efficacy)
Description: I) Membrane Potential Optical Methods for Assaying ΔF508-CFTR Modulation Properties of Compounds
These voltage sensitive assays are based on the change in fluorescence resonant energy transfer (FRET) between the membrane-soluble, voltage-sensitive dye, DiSBAC2(3), and a fluorescent phospholipid, CC2-DMPE, which is attached to the outer leaflet of the plasma membrane and acts as a FRET donor. Changes in membrane potential (Vm) cause the negatively charged DiSBAC2(3) to redistribute across the plasma membrane and the amount of energy transfer from CC2-DMPE changes accordingly. The changes in fluorescence emission were monitored using VIPR™ II, which is an integrated liquid handler and fluorescent detector designed to conduct cell-based screens in 96- or 384-well microtiter plates.
Identification of Correction Compounds
To identify small molecules that correct the trafficking defect associated with ΔF508-CFTR; a single-addition HTS assay format was developed. The cells were incubated in serum-free medium for 16 hrs at 37° C. in the presence or absence (negative control) of test compound. As a positive control, cells plated in 384-well plates were incubated for 16 hrs at 27° C. to “temperature-correct” ΔF508-CFTR. The cells were subsequently rinsed 3× with Krebs Ringers solution and loaded with the voltage-sensitive dyes. To activate ΔF508-CFTR, 10 μM forskolin and the CFTR potentiator, genistein (20 μM), were added along with Cl^− free medium to each well. The addition of Cl^− free medium promoted Cl^− efflux in response to ΔF508-CFTR activation and the resulting membrane depolarization was optically monitored using the FRET-based voltage-sensor dyes.
• Bath Solution #1: (in mM) NaCl 160, KCl 4.5, CaCl2 2, MgCl2 1, HEPES 10, pH 7.4 with NaOH. • Chloride-free bath solution: Chloride salts in Bath Solution #1 are substituted with gluconate salts. • CC2-DMPE: Prepared as a 10 mM stock solution in DMSO and stored at −20° C. • DiSBAC2(3): Prepared as a 10 mM stock in DMSO and stored at −20° C.
NIH3T3 mouse fibroblasts stably expressing ΔF508-CFTR are used for optical measurements of membrane potential. The cells are maintained at 37° C. in 5% CO2 and 90% humidity in Dulbecco's modified Eagle's medium supplemented with 2 mM glutamine, 10% fetal bovine serum, 1×NEAA, β-ME, 1×pen/strep, and 25 mM HEPES in 175 cm^2 culture flasks. For all optical assays, the cells were seeded at 30,000/well in 384-well matrigel-coated plates and cultured for 2 hrs at 37° C. before culturing at 27° C. for 24 hrs. for the potentiator assay.

T1 sequence (P13569 with tags, fused parts or gaps DEL508-508): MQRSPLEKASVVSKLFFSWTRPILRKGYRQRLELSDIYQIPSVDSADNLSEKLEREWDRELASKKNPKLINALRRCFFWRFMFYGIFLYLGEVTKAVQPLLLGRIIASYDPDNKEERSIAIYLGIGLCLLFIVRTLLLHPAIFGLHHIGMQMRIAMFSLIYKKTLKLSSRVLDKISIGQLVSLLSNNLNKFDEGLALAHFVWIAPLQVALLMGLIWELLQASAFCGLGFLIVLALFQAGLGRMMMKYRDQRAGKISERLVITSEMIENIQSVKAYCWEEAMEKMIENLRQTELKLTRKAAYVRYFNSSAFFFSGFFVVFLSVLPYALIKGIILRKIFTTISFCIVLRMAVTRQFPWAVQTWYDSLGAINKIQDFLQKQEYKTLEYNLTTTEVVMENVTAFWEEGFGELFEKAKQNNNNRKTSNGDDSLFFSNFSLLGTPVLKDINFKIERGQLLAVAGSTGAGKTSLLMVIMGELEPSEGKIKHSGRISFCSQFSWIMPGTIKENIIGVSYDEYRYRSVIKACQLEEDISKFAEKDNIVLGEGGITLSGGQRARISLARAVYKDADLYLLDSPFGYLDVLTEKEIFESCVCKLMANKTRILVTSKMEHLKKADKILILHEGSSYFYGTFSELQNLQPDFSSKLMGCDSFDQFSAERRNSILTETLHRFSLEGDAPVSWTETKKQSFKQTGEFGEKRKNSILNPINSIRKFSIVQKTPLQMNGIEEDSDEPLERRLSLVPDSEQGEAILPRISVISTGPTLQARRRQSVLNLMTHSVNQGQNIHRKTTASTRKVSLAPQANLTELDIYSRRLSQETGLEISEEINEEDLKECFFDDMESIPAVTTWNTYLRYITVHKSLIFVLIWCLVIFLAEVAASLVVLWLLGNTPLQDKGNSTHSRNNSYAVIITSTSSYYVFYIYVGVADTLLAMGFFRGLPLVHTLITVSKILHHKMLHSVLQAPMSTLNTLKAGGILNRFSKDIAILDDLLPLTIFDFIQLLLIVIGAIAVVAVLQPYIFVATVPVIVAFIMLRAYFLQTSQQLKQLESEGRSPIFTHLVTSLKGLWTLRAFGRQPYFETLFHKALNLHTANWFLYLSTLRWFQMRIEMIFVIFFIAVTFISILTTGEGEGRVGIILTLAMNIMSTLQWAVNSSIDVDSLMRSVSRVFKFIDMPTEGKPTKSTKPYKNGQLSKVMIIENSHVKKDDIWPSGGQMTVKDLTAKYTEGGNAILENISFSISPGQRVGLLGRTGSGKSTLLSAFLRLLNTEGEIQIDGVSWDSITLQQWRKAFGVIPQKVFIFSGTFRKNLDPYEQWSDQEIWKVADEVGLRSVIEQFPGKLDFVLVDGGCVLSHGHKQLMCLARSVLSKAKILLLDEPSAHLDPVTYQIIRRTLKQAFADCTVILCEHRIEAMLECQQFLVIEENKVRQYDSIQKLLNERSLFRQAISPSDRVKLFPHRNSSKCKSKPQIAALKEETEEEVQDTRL

Row | Compound | EC50 | Emax | % Activity / % Efficacy (relative efficacy)
1 | COc1ccc(C2(C(=O)Nc3ncc(C(=O)c4ccccc4Cl)s3)CC2)cc1 [Example 44] | < 10 µM | > 100% | 
2 | O=C(Nc1ncc(-c2ccccc2)s1)C1(c2ccc3c(c2)OCO3)CC1 [Example 86] | < 10 µM |  | +++ (“+++” means>100%)
3 | COc1ccc(C2(C(=O)Nc3ncc(Sc4ccccc4C(=O)O)s3)CC2)cc1 [Example 104] | < 10 µM |  | +++ (“+++” means>100%)
4 | CCN(CC)CCN(C(=O)C1(c2ccc(OC)cc2)CC1)c1ncc(Cc2ccccc2Cl)s1 [Example 75] | 25 to 60 µM |  | ++ (“++” means between 25% to 100%)
5 | CCOC(=O)c1nc(NC(=O)C2(c3ccc(OC)cc3)CC2)sc1Cc1ccccc1OC [Example 195] | < 10 µM |  | +++ (“+++” means>100%)
6 | COc1ccc(C2(C(=O)Nc3ncc(Sc4ccccc4N)s3)CC2)cc1 [Example 95] | < 10 µM | 25 to 100% | 
7 | O=C(Nc1ncc(-c2ccncc2)s1)C1(c2ccc3c(c2)OCO3)CC1 [Example 299] | 10 to 25 µM | 25 to 100% | 
8 | COc1ccc(C(c2cnc(NC(=O)C3(c4ccc5c(c4)OCO5)CC3)s2)N(C)C)cc1 (stereo not drawn) [Example 350] | < 10 µM | > 100% | 
9 | CCOc1ccccc1C(N[C@@H](CO)C(C)C)c1cnc(NC(=O)C2(c3ccc4c(c3)OCO4)CC2)s1 (stereo partly drawn) [Example 478] | < 10 µM |  | 
10 | COc1ccc(C2(C(=O)Nc3ncc(Cc4cccc(Cl)c4)o3)CC2)cc1 [Example 153] | < 10 µM |  | ++ (“++” means between 25% to 100%)
11 | CCNC(c1cnc(NC(=O)C2(c3ccc4c(c3)OCO4)CC2)s1)c1ccccc1Cl (stereo not drawn) [Example 432] | < 10 µM | > 100% | 
12 | CCOC(c1cnc(NC(=O)C2(c3ccc4c(c3)OCO4)CC2)s1)c1ccccc1Cl (stereo not drawn) [Example 240] | < 10 µM |  | +++ (“+++” means>100%)
13 | COc1ccc(C2(C(=O)Nc3ncc(Cc4cccc(F)c4Cl)s3)CC2)cc1 [Example 89] | < 10 µM | > 100% | 
14 | O=C(Nc1ncc(C(NCCO)c2ccccc2Cl)s1)C1(c2ccc3c(c2)OCO3)CC1 (stereo not drawn) [Example 416] | < 10 µM | > 100% | 
15 | O=C(Nc1ncc(Cc2ccccc2Cl)s1)C1(c2cccc(F)c2)CCCCC1 [Example 305] | < 10 µM | > 100% | 
16 | O=C(Nc1ncc(C(Cc2ccccc2Cl)N2CCCC2)s1)C1(c2ccc3c(c2)OCO3)CC1 (stereo not drawn) [Example 453] | < 10 µM | 25 to 100% | 
17 | COc1cccc(C(c2cnc(NC(=O)C3(c4ccc5c(c4)OCO5)CC3)s2)N2CCCCC2)c1 (stereo not drawn) [Example 344] | < 10 µM | 25 to 100% | 
18 | O=C(Nc1ncc(CN2CC[C@H](O)C2)s1)C1(c2ccc3c(c2)OCO3)CC1 [Example 320] | 10 to 25 µM | > 100% | 
19 | O=C(Nc1nnc(-c2ccccc2)s1)C1(c2ccc3c(c2)OCO3)CC1 [Example 293] | 10 to 25 µM | 25 to 100% | 
20 | CC(C)(C)[C@@H](CO)NC(c1cnc(NC(=O)C2(c3ccc4c(c3)OCO4)CC2)s1)c1ccccc1Cl (stereo partly drawn) [Example 490] | 10 to 25 µM | 25 to 100% | 
21 | Cc1cnc(NC(=O)C2(c3ccc4c(c3)OCO4)CC2)s1 [Example 85] | < 10 µM |  | +++ (“+++” means>100%)
22 | CC(C)OC(c1cnc(NC(=O)C2(c3ccc4c(c3)OCO4)CC2)s1)c1ccccc1Cl (stereo not drawn) [Example 261] | < 10 µM |  | +++ (“+++” means>100%)
23 | CCN(CC)C(c1cccc(OC)c1)c1cnc(NC(=O)C2(c3ccc4c(c3)OCO4)CC2)s1 (stereo not drawn) [Example 357] | < 10 µM | > 100% | 
24 | COc1ccccc1Sc1cnc(NC(=O)C2(c3ccc4c(c3)OCO4)CC2)s1 [Example 99] | < 10 µM |  | +++ (“+++” means>100%)

More lines, now with the values ahead:

Row | EC50 | Emax | % Activity / % Efficacy (relative efficacy) | Compound
25 | < 10 µM | > 100% |  | CCCC[C@@H](CO)NC(c1cnc(NC(=O)C2(c3ccc4c(c3)OCO4)CC2)s1)c1ccccc1Cl (stereo partly drawn) [Example 491]
26 | < 10 µM |  | ++ (“++” means between 25% to 100%) | COc1ccc(C2(C(=O)Nc3ncc(Cc4ccc(F)cc4C)s3)CC2)cc1 [Example 282]
27 | < 10 µM | > 100% |  | C[C@@H](CO)NC(c1cnc(NC(=O)C2(c3ccc4c(c3)OCO4)CC2)s1)c1ccccc1Cl (stereo partly drawn) [Example 424]
28 | < 10 µM | > 100% |  | COc1cccc(C(c2cnc(NC(=O)C3(c4ccc5c(c4)OCO5)CC3)s2)N2CCC[C@@H]2C(N)=O)c1 (stereo partly drawn) [Example 370]
29 | < 10 µM |  | +++ (“+++” means>100%) | COc1ccc(C2(C(=O)Nc3ncc([S+]([O-])c4ccccc4OC)s3)CC2)cc1 (stereo not drawn) [Example 87]
30 | < 10 µM |  | +++ (“+++” means>100%) | COc1ccccc1Cc1cnc(NC(=O)C2(c3ccc(OC)c(OC)c3)CC2)s1 [Example 58]
31 | < 10 µM |  | ++ (“++” means between 25% to 100%) | Cc1cc(F)ccc1Cc1cnc(NC(=O)C2(c3ccc4c(c3)OCO4)CC2)s1 [Example 283]
32 | < 10 µM |  | +++ (“+++” means>100%) | O=C(Nc1ncc(Cc2cccc(F)c2Cl)s1)C1(c2ccc3c(c2)OCO3)CC1 [Example 159]
33 | < 10 µM | > 100% |  | O=C(Nc1ncc(C(NC2CCCC2)c2ccccc2Cl)s1)C1(c2ccc3c(c2)OCO3)CC1 (stereo not drawn) [Example 414]
34 | < 10 µM |  | ++ (“++” means between 25% to 100%) | O=C(Nc1ncc(C(c2ccccc2Cl)n2ccnc2)s1)C1(c2ccc3c(c2)OCO3)CC1 (stereo not drawn) [Example 241]
35 | < 10 µM | > 100% |  | CCC(CO)NC(c1cnc(NC(=O)C2(c3ccc4c(c3)OCO4)CC2)s1)c1ccccc1Cl (stereo not drawn) [Example 486]
36 | 10 to 25 µM | > 100% |  | C/C=C/c1cnc(NC(=O)C2(c3ccc4c(c3)OCO4)CC2)s1 [Example 386]
37 | 10 to 25 µM | 25 to 100% |  | COCC1CCCN1C(c1ccc(S(C)(=O)=O)cc1)c1cnc(NC(=O)C2(c3ccc4c(c3)OCO4)CC2)s1 (stereo not drawn) [Example 375]
38 | < 10 µM |  | ++ (“++” means between 25% to 100%) | COc1ccc(C2(C(=O)Nc3ncc(Cc4cc(F)ccc4Cl)s3)CC2)cc1 [Example 90]
39 | < 10 µM |  | +++ (“+++” means>100%) | COc1ccc(C2(C(=O)Nc3nc(-c4ccc(Cl)cc4)cs3)CC2)cc1 [Example 78]
40 | < 10 µM | 25 to 100% |  | O=C(Nc1ncc(Cc2ccccc2Cl)s1)C1(c2cccc(N3CCOCC3)c2)CC1 [Example 315]
41 | 10 to 25 µM | > 100% |  | COc1ccccc1C(c1cnc(NC(=O)C2(c3ccc4c(c3)OCO4)CC2)s1)N1CC[C@@H](O)C1 (stereo partly drawn) [Example 346]
42 | < 10 µM |  | +++ (“+++” means>100%) | COc1ccc(OC)c(-c2csc(NC(=O)C3(c4ccc5c(c4)OCO5)CC3)n2)c1 [Example 113]
43 | 10 to 25 µM | > 100% |  | CS(=O)(=O)c1ccc(C(c2cnc(NC(=O)C3(c4ccc5c(c4)OCO5)CC3)s2)N2CCOCC2)cc1 (stereo not drawn) [Example 382]
44 | < 10 µM | > 100% |  | CC1CCc2c(sc(NC(=O)C3(c4ccc5c(c4)OCO5)CC3)c2C#N)C1 (stereo not drawn) [Example 296]
